Experiment [1] deals with KB-3-1 cells. Description: Resazurin cell viability (cytotoxicity) assay, 72 h incubation, KB-3-1 cells. The following applies: resazurin fluorescence, drug concentration at which vitality is 50%, read-out: IC50 values of cryptophycin compounds, KB-3-1 cells. Type of experiment: cell-based. The procedure: (§1) The KB-3-1 and KB—V1 cells were cultivated as a monolayer in DMEM (Dulbecco's modified Eagle medium) with glucose (4.5 g L^−1), L-glutamine, sodium pyruvate and phenol red, supplemented with 10% (KB-3-1) and 15% (KB—V1) fetal bovine serum. 50 μg mL^−1 gentamycin is added for the KB—V1 cells. The cells were maintained at 37° C. and 5.3% CO2/humidified air. KB—V1 cells were continuously selected during cultivation with vinblastine sulfate (150 nM). On the day before the test, the cells (70% confluence) were detached with trypsin/ethylenediaminetetraacetic acid (EDTA) solution (0.05%/0.02% in DPBS) and plated in sterile 96-well plates in a density of 10,000 cells in 100 μL medium per well. The dilution series of the compounds were prepared from stock solutions in DMSO of concentrations of […]. The stock solutions were diluted with culture medium (15% FBS [KB—V1]; 10% FBS [KB-3-1]) at least 50 times. Some culture medium was added to the wells to adjust the volume of the wells to the wanted dilution factor. The dilution prepared from stock solution was added to the wells. Each concentration was tested in six replicates. Dilution series were prepared by pipetting liquid from well to well. The control contained the same concentration of DMSO as the first dilution. After incubation for 72 h at 37° C. and 5.3% CO2/humidified air, 30 μL of an aqueous resazurin solution (175 μM) was added to each well. The cells were incubated at the same conditions for 6 h. Subsequently, the fluorescence was measured. The excitation was effected at a wavelength of 530 nm, whereas the emission was recorded at a wavelength of 588 nm. The IC50 values were calculated as a sigmoidal dose response curve using GraphPad Prism 4.03. The IC50 values equal the drug concentrations, at which vitality is 50%.

In experiment [2] the test system is KB-V1 cells. Description: Resazurin cell viability (cytotoxicity) assay, 72 h incubation, KB-V1 cells (selected with vinblastine). Type of experiment: cell-based. The note with it: resazurin fluorescence, drug concentration at which vitality is 50%, read-out: IC50 values of cryptophycin compounds, KB-V1 cells. The method, then: as §1
On the technique in general: Resazurin is reduced to fluorescent resorufin, in cell work by metabolically active cells.

Some results are limits rather than exact numbers.

One may read the IC50 as the concentration that gives 50% inhibition.

On to “Cryptophycin-[uD-HSe(AII)] [Compound Y7]”, for which the values for the IC50 in experiment [1] and in experiment [2] were 0.018 nM and 93 nM, respectively.

With “Cryptophycin-uD[Dap(AII, Me)] [Compound C10]”, the IC50 in experiment [1] turned out to be 0.021 nM; in experiment [2] it was 0.87 nM.

Consider “Cryptophycin-[uD-Thr(Allyl)] [Compound Z6]”, for which the concentration for half-maximal inhibition (IC50) in experiment [1] was 1.5 nM; in experiment [2], over 1000 nM.

With Cryptophycin-[uD-Lys] [Compound G6], the IC50 in experiment [1] is 60000 nM; in experiment [2] it was over 500 nM.

Cryptophycin-[uD-Dab-Me2] [Compound C7]: the figures for the 50% inhibitory concentration (IC50) in experiment [1] and in experiment [2] were 0.038 nM and 210 nM, respectively.

Consider “Cryptophycin [Compound H8, Cryptophycin [uD-Ser]]”, for which the half-maximal inhibitory concentration (IC50) in experiment [1] stood at 0.12 nM; in experiment [2], 1100 nM.

With “Cryptophycin-uD[Dap(Alloc,Me)] [Compound P10]”, the values for the IC50 in experiment [1] and in experiment [2] were 0.045 nM and 890 nM, respectively.

For Cryptophycin-[uD-Dab] [Compound C6], the IC50 is 1 nM in experiment [1] and over 50000 nM in experiment [2].

In the case of “Cryptophycin-[uD-Ser(AII)] [Compound H7]”, the half-maximal inhibitory concentration (IC50) was found to be 0.011 nM in experiment [1] and 29 nM in experiment [2].

Consider “Cryptophycin-uD[Dab(Alloc,Me)] [Compound B10]”, for which the IC50 in experiment [1] worked out at 0.021 nM; in experiment [2], 90 nM.

As to Cryptophycin-uD[Dap(Me)] [Compound P11], the IC50 in experiment [1] is 0.0087 nM; in experiment [2], 21 nM.

Consider Cryptophycin-[uD-Thr] [Compound Z7], for which the half-maximal inhibitory concentration (IC50) came to 0.026 nM in experiment [1] and 300 nM in experiment [2].

In the case of “Cryptophycin-[uD-Dab(Alloc)] [Compound C5]”, the values for the IC50 in experiment [1] and in experiment [2] were 0.22 nM and 400 nM, respectively.

Cryptophycin-[uD-HSe] [Compound Y8]: the IC50 is 0.8 nM in experiment [1] and over 500 nM in experiment [2].

With Cryptophycin-[uD-Met] [Compound T7], the IC50 worked out at 0.02 nM in experiment [1] and 49 nM in experiment [2].

On to “Cryptophycin-[uD-Lys(Alloc)] [Compound G5]”, for which the IC50 is 4200 nM in experiment [1] and over 500 nM in experiment [2].

Values taken from patent publication US20250368632A1, “CR[…] AND CONJUGATES THEREOF” (Universitat Bielefeld, priority 2021, published 2025).
